# How the values were obtained:
# HIV = conditions: cited from earlier work
# E-coniferyl alcohol [1] = assay: Kinetic characterization of conversion of E-coniferyl alcohol to (+)-pinoresinol with dirigent protein and oxidase/oxidant; format: biochemical, Forsythia intermedia; conditions: (+)-pinoresinol formation from E-coniferyl alcohol, dirigent protein 770 pmol ml^−1 alone or with Fraction III 12 μg protein ml^−1, laccase 2.07 pmol ml^−1, FMN 0.5 μmol ml^−1; for Km: read-out: Formal Km
# Procedure: Assays were carried out as described in Example 3 by incubating a series of E-[9-^3H]coniferyl alcohol concentrations (between 8.00 and 0.13 μmol ml^−1, 7.3 MBq mole literl) with dirigent protein (770 pmol ml^−1) alone and in presence of Forsythia laccase (2.1 pmol ml^−1), fraction III (12 μg protein ml^−1), or FMN (0.5 μmol ml^−1). Assays with dirigent protein, in presence or absence of FMN, were incubated at 30° C. for 1 hour, whereas assays with Forsythia laccase or fraction III in presence or absence of dirigent protein were incubated at 30° C. for 15 min. If free-radical capture by the dirigent protein is the operative mechanism, the Michaelis-Menten parameters obtained will only represent formal rather than true values, because the highest free-energy intermediate state during the conversion of E-coniferyl alcohol into (+)-pinoresinol is still unknown and the relation between the concentration of substrate and that of the corresponding intermediate free-radical in open solution has not been delineated.
# Bearing these qualifications in mind, we estimated formal Km and Vmax values for the dirigent protein preparation.
# E-sinapyl alcohol = E-sinapyl alcohol coupling assay (oxidant with/without dirigent protein); format: biochemical, Forsythia intermedia; conditions: 6 hour assay
# Procedure: Investigation of Substrate-Specific Stereoselectivity. The coupling stereoselectivity was substrate specific. Neither E-p-[9-^3H]coumaryl (4 μmol ml^−1, 44.5 kBq) or E-[8-^14C]sinapyl alcohols (4 μmol ml^−1, 8.3 kBq), which differ from E-coniferyl alcohol only by a methoxyl group substituent on the aromatic ring, yielded stereoselective products when incubated for 6 hours with FMN and ammonium peroxydisulfate respectively, in the presence and absence of the dirigent protein. Incubations were carried out as described above with the following modifications: E-p-[9-^3H]coumaryl (4 μmol ml^−1, 44.5 kBq) or E-[8-^14C]sinapyl alcohols (4 μmol ml^−1, 8.3 kBq) were used as substrates and, after 6 hour incubation at 30° C., the reaction mixture was extracted with EtOAc but without addition of radiochemical carriers.
# E-coniferyl alcohol [2] = assay: E-coniferyl alcohol coupling assay (oxidant with/without dirigent protein); format: biochemical, Forsythia intermedia; conditions: 6 hour assay
# Procedure: E-coniferyl alcohol coupling assay. E-[9-^3H]Coniferyl alcohol (4 μmol ml^−1, 29.3 kBq) was incubated with a 120-kD laccase (previously purified from Forsythia intermedia stem tissue) over a […], in the presence and absence of the dirigent protein, as follows. Each assay consisted of E-[9-^3H]coniferyl alcohol (4 μmol ml^−1, 29.3 kBq, 7.3 MBq mole liter^−1; or 2 μmol ml^−1, 14.7 kBq with fraction III), the 78-kD dirigent protein, an oxidase or oxidant, or both [final concentrations: 770 pmol ml^−1 dirigent protein; 10.7 pmol protein ml^−1 Forsythia laccase; 12 μg protein ml^−1 fraction III; 0.5 μmol ml^−1 FMN; 0.5 μmol ml^−1 FAD; 1 and 10 μmol ml^−1 ammonium peroxydisulfate] in buffer (0.1 M MES-HEPES-sodium acetate, pH 5.0) to a total volume of 250 μl. The enzymatic reaction was initiated by addition of E-[9-^3H]coniferyl alcohol. Controls were performed in the presence of buffer alone.
# After one hour incubation at 30° C. while shaking, the assay mixture was extracted with ethyl acetate (EtOAc, 500 μl) containing (±)-pinoresinols (7.5 μg), (±)-dehydrodiconiferyl alcohols (3.5 μg) and erythro/threo (±)-guaiacylglycerol 8-O-4′-coniferyl alcohol ethers (7.5 μg) as radiochemical carriers and ferulic acid (15.0 μg) as an internal standard. After centrifugation (13,800 g, 5 min), the EtOAc soluble components were removed and the extraction procedure repeated with EtOAc (500 μl). The EtOAc soluble components from each assay were combined, the solutions evaporated to dryness in vacuo, redissolved in methanol-water solution (1:1; 100 μl) with an aliquot (50 μl) thereof subjected to reversed-phase column chromatography (Waters, Nova-Pak C18, 150 mm by 3.8 mm). The elution conditions were as follows: acetonitrile/3% acetic acid in H2O (5:95) from 0 to 5 min, then linear gradients to ratios of 10:90 between 5 and 20 min, then to 20:80 between 20 and 45 min and finally to 50:50 between 45 and 60 min, at a flow rate of 8.8 ml min^−1 cm^−2.
# Fractions corresponding to E-coniferyl alcohol, erythro/threo (±)-guaiacylglycerol 8-O-4′-coniferyl alcohol ethers, (±)-dehydrodiconiferyl alcohols and (±)-pinoresinols were individually collected, aliquots removed for liquid scintillation counting, and the remainder freeze-dried. Pinoresinol-containing fractions were redissolved in methanol (100 μl) and subjected to chiral column chromatography (Daicel, Chiralcel OD, 50 mm by 4.6 mm) with a solution of hexanes and ethanol (1:1) as the mobile phase (flow rate 3 ml min^−1 cm^−2), whereas dehydrodiconiferyl alcohol fractions were subjected to Chiralcel OF (250 mm by 4.6 mm) column chromatography eluted with a solution of hexanes and isopropanol (9:1) as the mobile phase (flow rate 2.4 ml min^−1 cm^−2), the radioactivity of the eluent being measured with a flow-through detector (Radiomatic, Model A120).
# Ammonium peroxydisulfate readily undergoes homolytic cleavage (A. Usaitis, R. Makuska, Polymer 35:4896 (1994)) and is routinely used as an one-electron oxidant in acrylamide polymerization. Ammonium peroxydisulfate was first incubated with E-[9-^3H]coniferyl alcohol (4 μmol ml^−1, 29.3 kBq) for 6 hours using the E-coniferyl alcohol coupling assay procedure described above.
# E-coniferyl alcohol [3] = assay: (+)-Pinoresinol-forming activity from E-[9-3H]coniferyl alcohol; format: biochemical, Forsythia intermedia
# [4] = substrate: COc1cc(C[C@H]2CO[C@H](c3ccc(O)c(OC)c3)[C@H]2CO)ccc1O; assay: Initial velocity studies, reductase 35 kDa isoform; format: biochemical, Forsythia intermedia; conditions: other: 35 kDa form of the enzyme, NADPH 80 μM, pH 7.4, 30° C.
# Procedure: Kinetic Parameters. […] The initial velocity studies were carried out individually utilizing the two isoforms of the enzyme, and individually employing both (+)-pinoresinol and (+)-lariciresinol as substrates. Initial velocity studies were performed in triplicate experiments, using 50 mM Bis-Tris Propane buffer, pH 7.4 containing 5 mM dithiothreitol, pure enzyme (after MonoQ anion-exchange chromatography), ten different substrate concentrations (between 8.8 and 160 μM) at a constant NADPH concentration (80 μM). Incubations were carried out at 30° C. for 10 min (within the linear kinetic range). Kinetic parameters were determined from Lineweaver-Burk plots.
# [5] = substrate: COc1cc(C[C@H]2CO[C@H](c3ccc(O)c(OC)c3)[C@H]2CO)ccc1O; assay: purified protein, by the assay type; conditions: other: 36 kDa form of the enzyme, NADPH 80 μM, pH 7.4, 30° C.
# [6] = dirigent protein absent, FMN 0.5 μmol ml^−1 or ammonium peroxydisulfate 10 μmol ml^−1
# [7] = dirigent protein present (770 pmol ml^−1), FMN 0.5 μmol ml^−1 or ammonium peroxydisulfate 10 μmol ml^−1
# [8] = ammonium peroxydisulfate 1 μmol ml^−1, dirigent protein absent
# [9] = ammonium peroxydisulfate 1 μmol ml^−1, dirigent protein present (770 pmol ml^−1)
# [10] = ammonium peroxydisulfate 10 μmol ml^−1, dirigent protein absent
# [11] = ammonium peroxydisulfate 10 μmol ml^−1, dirigent protein present (770 pmol ml^−1)
# [12] = dirigent protein (770 pmol ml^−1) alone, no added oxidant
molecule,measurement,setting,value
COc1cc(C[C@H]2C(=O)OC[C@@H]2Cc2ccc(OC)c(OC)c2)ccc1O [(−)-arctigenin],effectiveness against HIV (reverse transcriptase inhibitory activities),HIV,effective against HIV
"Cc1cc2nc3c(=O)[nH]c(=O)nc-3n(C[C@H](O)[C@H](O)[C@H](O)COP(=O)(O)O)c2cc1C [FMN, flavin mononucleotide]",Vmax,E-coniferyl alcohol [1],0.024 ± 0.001 mol s^−1 mol^−1 dirigent protein
same,Km,E-coniferyl alcohol [1],100 ± 10 µM
same,E-Sinapyl alcohol in dimer equivalents depleted,E-sinapyl alcohol; [6],570 ± 100 nmol/mL
same,Racemic (±)-syringaresinols,E-sinapyl alcohol; [6],290 ± 40 nmol/mL
same,E-Sinapyl alcohol in dimer equivalents depleted,E-sinapyl alcohol; [7],610 ± 110 nmol/mL
same,Racemic (±)-syringaresinols,E-sinapyl alcohol; [7],340 ± 40 nmol/mL
N.N.O=S(=O)(O)OOS(=O)(=O)O [Ammonium peroxydisulfate],(+)-Pinoresinol,E-coniferyl alcohol [2]; [8],0 nmol/mL
same,(±)-Dehydro-diconiferyl alcohols,E-coniferyl alcohol [2]; [8],35 ± 2 nmol/mL
same,(±)-Guaiacyl-glycerol 8-O-4′-coniferyl alcohol ethers,E-coniferyl alcohol [2]; [8],10 ± 1 nmol/mL
same,(±)-Pinoresinols,E-coniferyl alcohol [2]; [8],16 ± 0 nmol/mL
same,E-Coniferyl alcohol in dimer equivalents depleted,E-coniferyl alcohol [2]; [8],200 ± 4 nmol/mL
same,Total dimers,E-coniferyl alcohol [2]; [8],61 ± 3 nmol/mL
same,(+)-Pinoresinol,E-coniferyl alcohol [2]; [9],130 ± 10 nmol/mL
same,(±)-Dehydro-diconiferyl alcohols,E-coniferyl alcohol [2]; [9],13 ± 1 nmol/mL
same,(±)-Guaiacyl-glycerol 8-O-4′-coniferyl alcohol ethers,E-coniferyl alcohol [2]; [9],6 ± 0 nmol/mL
same,(±)-Pinoresinols,E-coniferyl alcohol [2]; [9],0 nmol/mL
same,E-Coniferyl alcohol in dimer equivalents depleted,E-coniferyl alcohol [2]; [9],250 ± 55 nmol/mL
same,Total dimers,E-coniferyl alcohol [2]; [9],149 ± 11 nmol/mL
same,(+)-Pinoresinol,E-coniferyl alcohol [2]; [10],0 nmol/mL
same,(±)-Dehydro-diconiferyl alcohols,E-coniferyl alcohol [2]; [10],250 ± 10 nmol/mL
same,(±)-Guaiacyl-glycerol 8-O-4′-coniferyl alcohol ethers,E-coniferyl alcohol [2]; [10],90 ± 4 nmol/mL
same,(±)-Pinoresinols,E-coniferyl alcohol [2]; [10],135 ± 4 nmol/mL
same,E-Coniferyl alcohol in dimer equivalents depleted,E-coniferyl alcohol [2]; [10],860 ± 30 nmol/mL
same,Total dimers,E-coniferyl alcohol [2]; [10],475 ± 17 nmol/mL
same,(+)-Pinoresinol,E-coniferyl alcohol [2]; [11],450 ± 10 nmol/mL
same,(±)-Dehydro-diconiferyl alcohols,E-coniferyl alcohol [2]; [11],90 ± 3 nmol/mL
same,(±)-Guaiacyl-glycerol 8-O-4′-coniferyl alcohol ethers,E-coniferyl alcohol [2]; [11],30 ± 1 nmol/mL
same,(±)-Pinoresinols,E-coniferyl alcohol [2]; [11],0 nmol/mL
same,E-Coniferyl alcohol in dimer equivalents depleted,E-coniferyl alcohol [2]; [11],1030 ± 25 nmol/mL
same,Total dimers,E-coniferyl alcohol [2]; [11],570 ± 14 nmol/mL
same,E-Sinapyl alcohol in dimer equivalents depleted,E-sinapyl alcohol; [6],1400 ± 120 nmol/mL
same,Racemic (±)-syringaresinols,E-sinapyl alcohol; [6],1020 ± 40 nmol/mL
same,E-Sinapyl alcohol in dimer equivalents depleted,E-sinapyl alcohol; [7],1520 ± 10 nmol/mL
same,Racemic (±)-syringaresinols,E-sinapyl alcohol; [7],1060 ± 30 nmol/mL
CC(Cc1ccc(O)c(O)c1)C(C)Cc1ccc(O)c(O)c1 (centres unmarked) [nordihydroguaiaretic acid],effectiveness against HIV (reverse transcriptase inhibitory activities),HIV,effective against HIV
Dirigent protein: 78-kD protein purified from Forsythia intermedia stems that guides stereoselective coupling of E-coniferyl alcohol radicals to (+)-pinoresinol (protein) MVSKTQIVALFLCFLTSTSSATYGRKPRPRRPCKELVFYFHDVLFKGNNYHNATSAIVGSPQWGNKTAMAVPFNYGDLVVFDDPITLDNNLHSPPVGRAQGMYFYDQKNTYNAWLGFSFLFNSTKYVGTLNFAGADPLLNKTRDISVIGGTGDFFMARGVATLMTDAFEGDVYFRLRVDINLYECW,Vmax,E-coniferyl alcohol [1],0.02 ± 0.02 mol s^−1 mol^−1 dirigent protein
same,Vmax,E-coniferyl alcohol [1]; listed as dirigent protein,0.02±0.02 mol s^−1 mol^−1 dirigent prote
same,Km,E-coniferyl alcohol [1],10000 ± 6000 µM
same,(+)-Pinoresinol,E-coniferyl alcohol [2]; [12],55 ± 1 nmol/mL
same,(±)-Dehydro-diconiferyl alcohols,E-coniferyl alcohol [2]; [12],8 ± 1 nmol/mL
same,(±)-Guaiacyl-glycerol 8-O-4′-coniferyl alcohol ethers,E-coniferyl alcohol [2]; [12],5 ± 1 nmol/mL
same,(±)-Pinoresinols,E-coniferyl alcohol [2]; [12],0 nmol/mL
same,E-Coniferyl alcohol in dimer equivalents depleted,E-coniferyl alcohol [2]; [12],61 ± 20 nmol/mL
same,Total dimers,E-coniferyl alcohol [2]; [12],68 ± 3 nmol/mL
same,(+)-pinoresinol-forming activity,E-coniferyl alcohol [3]; E-[9-3H]coniferyl alcohol as substrate for one hour,< 5 % of total activity loaded onto the POROS SP-M column
same,(+)-pinoresinol formation (residual oxidizing capacity),"E-coniferyl alcohol [3]; protein by itself, over 10 hours",< 5%
same,E-Sinapyl alcohol in dimer equivalents depleted,E-sinapyl alcohol; [12],110 ± 10 nmol/mL
same,Racemic (±)-syringaresinols,E-sinapyl alcohol; [12],50 ± 10 nmol/mL
"35 kDa form of (+)-pinoresinol/(+)-lariciresinol reductase (Forsythia x intermedia) (protein, pure enzyme (after MonoQ anion-exchange chromatography); from tissue; host or cells: Forsythia intermedia stems) GKSKVLIIGGTGYLGRRLVKASLAQGHETYILHRPEIGVDIDKVEMLISFKMQGAHLVSGSFKDFNSLVEAVKLVDVVISAISGVHIRSHQILLQLKLVEAIKEAGNVKRFLPSEFGMDPAKFMDTAMEPGKVTLDEKMVVRKAIEKAGIPFTYVSANCFAGYFLGGLCQFGKILPSRDFVIIHGDGNKKAIYNNEDDIATYAIKTINDPRTLNKTIYISPPKNILSQREVVQTWEKLIGKELQKITLSKEDFLASVKELEYAQQVGLSHYHDVNYQGCLTSFEIGDEEEASKLYPEVKYTSVEEYLKRYV",Km,[4],121 ± 5.0 µM
same,Vmax,[4],25.2±0.7 μmol h^−1 mg^−1 of protein
36 kDa form of (+)-pinoresinol/(+)-lariciresinol reductase (Forsythia x intermedia) (protein) GKSKVLIIGGTGYLGRRLVKASLAQGHETYILHRPEIGVDIDKVEMLISFKMQGAHLVSGSFKDFNSLVEAVKLVDVVISAISGVHIRSHQILLQLKLVEAIKEAGNVKRFLPSEFGMDPAKFMDTAMEPGKVTLDEKMVVRKAIEKAGIPFTYVSANCFAGYFLGGLCQFGKILPSRDFVIIHGDGNKKAIYNNEDDIATYAIKTINDPRTLNKTIYISPPKNILSQREVVQTWEKLIGKELQKITLSKEDFLASVKELEYAQQVGLSHYHDVNYQGCLTSFEIGDEEEASKLYPEVKYTSVEEYLKRYV,Km,[5],123 ± 6.0 µM
same,Vmax,[5],29.9±0.7 μmol h^−1 mg^−1 of protein

# — patent US6635459B1, “Nucleotide sequences encoding pinoresinol/lariciresinol reductase proteins and their methods of use” (Washington State University Research Foundation, priority 1996, dated 2003)
